Calls of active or inactive are those of the source. No cut-off for these calls is given here.
What was measured:
Homo sapiens = species on record: Homo sapiens; assay: Selectivity index, ratio of IC50 for inhibition of human GSK-3beta H350L mutant (2 to end residues) to IC50 for inhibition of human GSK-3alpha S449A mutant (2 to end residues)
HL-60 [1] = assay: Antiproliferative activity against human HL60 cells assessed as reduction in viability after 3 days by SRB assay; format: functional, cell-based
NB-4 [2] = assay: Antiproliferative activity against human NB4 cells assessed as reduction in viability after 3 days by SRB assay; format: functional, cell-based
HL-60 [3] = assay: Inhibition of colony formation in human HL60 cells preincubated for 72 hrs followed by compound washout and measured after 7 to 10 days; format: functional, cell-based
NB-4 [4] = assay: Inhibition of colony formation in human NB4 cells preincubated for 72 hrs followed by compound washout and measured after 7 to 10 days; format: functional, cell-based
HL-60 [5] = assay: Induction of cell death in human HL60 cells at 10 to 30 uM after 6 days by trypan blue assay; format: cell-based; conditions: hl-60, 144 h
NB-4 [6] = assay: Induction of cell death in human NB4 cells at 10 to 30 uM after 6 days by trypan blue assay; format: cell-based; conditions: nb-4, 144 h
HL-60 [7] = assay: Induction of cell differentiation in human HL60 cells assessed as increase in CD11b-APC-Cy7 positive cells after 6 days by flow cytometry analysis; format: functional, cell-based
NB-4 [8] = assay: Induction of cell differentiation in human NB4 cells assessed as increase in CD11b-APC-Cy7 positive cells after 6 days by flow cytometry analysis; format: functional, cell-based
NB-4 [9] = assay: Induction of cell differentiation in human NB4 cells assessed as increase in CD11c-APC positive cells after 6 days by flow cytometry analysis; format: functional, cell-based
NB-4 [10] = assay: Induction of cell differentiation in human NB4 cells assessed as increase in CD14-FITC positive cells after 6 days by flow cytometry analysis; format: functional, cell-based
HL-60 [11] = assay: Induction of monocytic differentiation in human HL60 cells assessed as increase in CD11b-APC-Cy7 positive cells at 30 uM after 6 days by flow cytometry analysis; format: functional, cell-based
NB-4 [12] = assay: Induction of monocytic differentiation in human NB4 cells assessed as increase in CD11b-APC-Cy7 positive cells at 30 uM after 6 days by flow cytometry analysis; format: functional, cell-based
HL-60 [13] = assay: Induction of monocytic differentiation in human HL60 monocytic assessed as increase in CD11c-APC positive cells at 30 uM after 6 days by flow cytometry analysis; format: functional, cell-based
NB-4 [14] = assay: Induction of monocytic differentiation in human NB4 cells assessed as increase in CD11c-APC positive cells at 30 uM after 6 days by flow cytometry analysis; format: functional, cell-based
HL-60 [15] = assay: Induction of monocytic differentiation in human HL60 cells assessed as increase in CD14-FITC positive cells at 30 uM after 6 days by flow cytometry analysis; format: functional, cell-based
NB-4 [16] = assay: Induction of monocytic differentiation in human NB4 cells assessed as increase in CD14 positive cells at 30 uM after 6 days by FITC staining based flow cytometry analysis; format: functional, cell-based
[17] = target: Glycogen synthase kinase-3 alpha (Homo sapiens, UniProt P49840); assay: Inhibition of GSK-3alpha phosphorylation at Y279 residue in human HL60 cells after 24 hrs by Western blot analysis; format: cell-based
[18] = Activation of wnt/beta-catenin signalling pathway in human HL60 cells assessed as stabilization of beta-catenin at 1 to 30 uM after 24 hrs by Western blot analysis; format: cell-based
HL-60 [19] = assay: Effect on total beta-catenin level in human HL60 cells at 1 to 30 uM after 24 hrs by Western blot analysis; format: ADME, cell-based; conditions: hl-60, 24 h
[20] = Activation of wnt/beta-catenin signalling pathway in human NB4 cells assessed as stabilization of beta-catenin at 1 to 30 uM after 24 hrs by Western blot analysis; format: cell-based
NB-4 [21] = assay: Effect on total beta-catenin level in human NB4 cells at 1 to 30 uM after 24 hrs by Western blot analysis; format: ADME, cell-based; conditions: nb-4, 24 h
[22] = target: AP2-associated protein kinase 1 (Homo sapiens) (UniProt Q2M2I8); assay: Inhibition of human AAK1 assessed as residual activity at 1 uM using peptide as substrate incubated for 120 mins in presence of [gamma-33ATP] by scintillation counting based radiometry assay relative to control
[23] = target: BMP-2-inducible protein kinase (Homo sapiens) (UniProt Q9NSY1); assay: Inhibition of recombinant human BIKe assessed as residual activity at 1 uM using peptide as substrate incubated for 120 mins in presence of [gamma-33ATP] by scintillation counting based radiometry assay relative to control
[24] = target: Cyclin-Y/Cyclin-dependent kinase 16 (Homo sapiens) (UniProt Q00536+Q8ND76); assay: Inhibition of recombinant full length human CDK16/cyclinY assessed as residual activity at 1 uM using PKSPKARKKL as substrate incubated for 120 mins in presence of [gamma-33ATP] by scintillation counting based radiometry assay relative to control; format: protein-complex assay
[25] = target: CDK17/Cyclin-Y (Homo sapiens) (UniProt Q00537+Q8ND76); assay: Inhibition of recombinant full length human CDK17/cyclinY assessed as residual activity at 1 uM using PKSPKARKKL as substrate incubated for 120 mins in presence of [gamma-33ATP] by scintillation counting based radiometry assay relative to control; format: protein-complex assay
[26] = target: Casein kinase I isoform alpha (Homo sapiens) (UniProt P48729); assay: Inhibition of recombinant human CK1alpha expressed in Escherichia coli assessed as residual activity at 1 uMu sing CK1 peptide as substrate preincubated for 15 mins followed by substrate addition and measured after 30 mins in presence of [gamma-33ATP] by scintillation counting method relative to control; conditions: 1 uM
[27] = target: Serine/threonine-protein kinase LATS1 (Homo sapiens) (UniProt O95835); assay: Inhibition of human LATS1 assessed as residual activity at 1 uM by radiometric assay relative to control
[28] = target: Mitogen-activated protein kinase kinase kinase 21 (Homo sapiens) (UniProt Q5TCX8); assay: Inhibition of recombinant human MLK4 assessed as residual activity at 1 uM using by radiometry assay relative to control
[29] = target: Serine/threonine-protein kinase MRCK gamma (Homo sapiens) (UniProt Q6DT37); assay: Inhibition of recombinant human MRCKgamma assessed as residual activity at 1 uM using KKRNRTLTV as substrate measured after 40 mins in presence of [gamma33P]ATP by scintillation counting method relative to control
[30] = target: Serine/threonine-protein kinase OSR1 (Homo sapiens) (UniProt O95747); assay: Inhibition of recombinant human OSR1 assessed as residual activity at 1 uM relative to control
[31] = target: Serine/threonine-protein kinase WNK4 (Homo sapiens) (UniProt Q96J92); assay: Inhibition of human WNK4 assessed as residual activity at 1 uM using myelin basic protein as substrate measured after 120 mins in presence of [gamma33P]ATP by scintillation counting method relative to control
[32] = system: Serine/threonine-protein kinase 38 (NDR1); assay: Inhibition of recombinant human NDR1 assessed as residual activity at 1 uM relative to control
[33] = target: Dual specificity mitogen-activated protein kinase kinase 7 (Homo sapiens) (UniProt O14733); assay: Inhibition of recombinant human MKK7beta (2 to end residues) assessed as residual activity at 1 uM using inactive JNK1a1 as substrate incubated for 40 mins in presence of [gamma-33ATP by scintillation counting based radiometry assay relative to control
Chain of Dual specificity mitogen-activated protein kinase kinase 7 (Homo sapiens) (O14733 whole entry): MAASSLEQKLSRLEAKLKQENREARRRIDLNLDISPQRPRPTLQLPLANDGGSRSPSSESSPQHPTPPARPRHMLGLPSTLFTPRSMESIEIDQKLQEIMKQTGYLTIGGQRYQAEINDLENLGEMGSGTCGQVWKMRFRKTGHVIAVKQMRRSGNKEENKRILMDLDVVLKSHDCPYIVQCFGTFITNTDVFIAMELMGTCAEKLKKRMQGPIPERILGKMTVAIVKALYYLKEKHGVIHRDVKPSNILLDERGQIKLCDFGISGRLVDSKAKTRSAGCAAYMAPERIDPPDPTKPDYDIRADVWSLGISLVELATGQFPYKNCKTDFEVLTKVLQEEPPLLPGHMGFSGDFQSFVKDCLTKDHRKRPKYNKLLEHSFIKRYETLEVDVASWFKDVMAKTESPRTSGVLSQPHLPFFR

Chain of Casein kinase I isoform alpha (Homo sapiens) (P48729 2-337 limits assumed): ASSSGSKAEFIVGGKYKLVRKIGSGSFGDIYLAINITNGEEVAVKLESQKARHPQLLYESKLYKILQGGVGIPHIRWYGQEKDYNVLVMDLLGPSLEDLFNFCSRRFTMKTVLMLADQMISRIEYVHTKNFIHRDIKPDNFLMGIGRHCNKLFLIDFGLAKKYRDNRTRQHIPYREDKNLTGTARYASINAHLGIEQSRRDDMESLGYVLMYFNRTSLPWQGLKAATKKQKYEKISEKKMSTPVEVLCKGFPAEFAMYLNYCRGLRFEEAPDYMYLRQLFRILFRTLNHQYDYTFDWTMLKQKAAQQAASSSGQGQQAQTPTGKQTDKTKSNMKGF
Chain of Serine/threonine-protein kinase OSR1 (Homo sapiens) (O95747 2-527 limits assumed): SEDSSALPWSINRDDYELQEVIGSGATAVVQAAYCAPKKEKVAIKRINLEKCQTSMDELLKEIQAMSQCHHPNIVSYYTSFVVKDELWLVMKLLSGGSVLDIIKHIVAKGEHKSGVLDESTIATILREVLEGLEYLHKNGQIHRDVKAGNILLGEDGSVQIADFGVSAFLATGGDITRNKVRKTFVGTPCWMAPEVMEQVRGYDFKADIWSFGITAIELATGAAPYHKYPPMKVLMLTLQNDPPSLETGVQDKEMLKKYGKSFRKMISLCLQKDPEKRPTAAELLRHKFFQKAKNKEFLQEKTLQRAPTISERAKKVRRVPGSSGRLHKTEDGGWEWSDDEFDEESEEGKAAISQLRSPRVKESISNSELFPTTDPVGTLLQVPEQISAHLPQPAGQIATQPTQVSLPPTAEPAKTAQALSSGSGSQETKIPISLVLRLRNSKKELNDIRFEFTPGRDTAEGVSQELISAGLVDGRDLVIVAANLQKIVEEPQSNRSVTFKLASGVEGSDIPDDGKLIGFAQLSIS
Chain of BMP-2-inducible protein kinase (Homo sapiens) (Q9NSY1 whole entry, looked up): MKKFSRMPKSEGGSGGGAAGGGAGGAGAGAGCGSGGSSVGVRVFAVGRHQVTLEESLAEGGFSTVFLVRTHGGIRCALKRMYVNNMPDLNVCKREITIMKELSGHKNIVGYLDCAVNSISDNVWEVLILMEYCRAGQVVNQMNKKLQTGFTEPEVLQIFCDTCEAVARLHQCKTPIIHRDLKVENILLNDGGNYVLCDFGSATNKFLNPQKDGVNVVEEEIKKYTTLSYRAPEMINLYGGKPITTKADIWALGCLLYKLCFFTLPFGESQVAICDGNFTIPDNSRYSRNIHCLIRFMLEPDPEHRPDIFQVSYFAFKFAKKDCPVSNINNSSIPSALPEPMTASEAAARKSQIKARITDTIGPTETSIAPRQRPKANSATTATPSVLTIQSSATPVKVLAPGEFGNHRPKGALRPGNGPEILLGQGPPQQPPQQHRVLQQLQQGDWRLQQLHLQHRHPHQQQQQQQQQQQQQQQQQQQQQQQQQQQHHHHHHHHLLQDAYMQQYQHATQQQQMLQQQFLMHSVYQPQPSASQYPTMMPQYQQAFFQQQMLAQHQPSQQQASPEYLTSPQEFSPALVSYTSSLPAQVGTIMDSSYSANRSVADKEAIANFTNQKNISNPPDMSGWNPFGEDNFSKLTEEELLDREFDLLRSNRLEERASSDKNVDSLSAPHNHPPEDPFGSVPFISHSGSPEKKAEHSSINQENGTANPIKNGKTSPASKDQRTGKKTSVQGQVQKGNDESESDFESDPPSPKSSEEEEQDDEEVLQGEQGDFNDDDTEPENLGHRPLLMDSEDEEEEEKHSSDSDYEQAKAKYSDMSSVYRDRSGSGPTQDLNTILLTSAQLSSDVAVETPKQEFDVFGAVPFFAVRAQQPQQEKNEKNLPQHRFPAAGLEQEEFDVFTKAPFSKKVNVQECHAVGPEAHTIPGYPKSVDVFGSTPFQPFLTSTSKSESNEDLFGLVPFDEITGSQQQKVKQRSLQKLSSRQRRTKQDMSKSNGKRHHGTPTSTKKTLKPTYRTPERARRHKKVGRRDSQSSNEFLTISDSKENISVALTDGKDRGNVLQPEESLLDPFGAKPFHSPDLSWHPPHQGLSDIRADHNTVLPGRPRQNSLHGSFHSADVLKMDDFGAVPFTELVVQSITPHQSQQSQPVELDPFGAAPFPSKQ
Chain of Mitogen-activated protein kinase kinase kinase 21 (Homo sapiens) (Q5TCX8 whole entry): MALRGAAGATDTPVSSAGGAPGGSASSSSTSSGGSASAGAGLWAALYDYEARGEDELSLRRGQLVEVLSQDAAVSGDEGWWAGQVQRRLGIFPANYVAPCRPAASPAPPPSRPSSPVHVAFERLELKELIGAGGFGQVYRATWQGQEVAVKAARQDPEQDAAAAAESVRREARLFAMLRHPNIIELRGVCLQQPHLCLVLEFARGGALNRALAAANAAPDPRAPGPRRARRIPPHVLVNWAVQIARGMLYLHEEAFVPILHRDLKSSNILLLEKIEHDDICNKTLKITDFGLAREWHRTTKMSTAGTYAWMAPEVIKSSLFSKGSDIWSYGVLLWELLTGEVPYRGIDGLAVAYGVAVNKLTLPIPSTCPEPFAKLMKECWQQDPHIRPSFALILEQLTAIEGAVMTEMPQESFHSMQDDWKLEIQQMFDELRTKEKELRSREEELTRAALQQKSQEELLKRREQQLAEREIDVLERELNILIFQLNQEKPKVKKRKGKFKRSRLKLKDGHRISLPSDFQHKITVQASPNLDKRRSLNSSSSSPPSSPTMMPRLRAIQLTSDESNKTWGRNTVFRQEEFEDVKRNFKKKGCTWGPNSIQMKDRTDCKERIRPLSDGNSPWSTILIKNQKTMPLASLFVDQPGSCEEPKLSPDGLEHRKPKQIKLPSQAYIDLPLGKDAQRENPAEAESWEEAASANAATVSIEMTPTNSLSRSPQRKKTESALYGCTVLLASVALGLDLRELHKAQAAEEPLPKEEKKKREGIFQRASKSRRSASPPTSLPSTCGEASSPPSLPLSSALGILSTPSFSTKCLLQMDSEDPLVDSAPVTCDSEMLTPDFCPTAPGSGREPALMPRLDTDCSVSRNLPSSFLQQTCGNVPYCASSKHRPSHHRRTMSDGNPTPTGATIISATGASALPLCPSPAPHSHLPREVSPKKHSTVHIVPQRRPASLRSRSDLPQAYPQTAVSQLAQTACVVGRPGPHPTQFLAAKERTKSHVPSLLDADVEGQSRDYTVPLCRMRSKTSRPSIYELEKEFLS
Chain of AP2-associated protein kinase 1 (Homo sapiens) (Q2M2I8 whole entry, looked up): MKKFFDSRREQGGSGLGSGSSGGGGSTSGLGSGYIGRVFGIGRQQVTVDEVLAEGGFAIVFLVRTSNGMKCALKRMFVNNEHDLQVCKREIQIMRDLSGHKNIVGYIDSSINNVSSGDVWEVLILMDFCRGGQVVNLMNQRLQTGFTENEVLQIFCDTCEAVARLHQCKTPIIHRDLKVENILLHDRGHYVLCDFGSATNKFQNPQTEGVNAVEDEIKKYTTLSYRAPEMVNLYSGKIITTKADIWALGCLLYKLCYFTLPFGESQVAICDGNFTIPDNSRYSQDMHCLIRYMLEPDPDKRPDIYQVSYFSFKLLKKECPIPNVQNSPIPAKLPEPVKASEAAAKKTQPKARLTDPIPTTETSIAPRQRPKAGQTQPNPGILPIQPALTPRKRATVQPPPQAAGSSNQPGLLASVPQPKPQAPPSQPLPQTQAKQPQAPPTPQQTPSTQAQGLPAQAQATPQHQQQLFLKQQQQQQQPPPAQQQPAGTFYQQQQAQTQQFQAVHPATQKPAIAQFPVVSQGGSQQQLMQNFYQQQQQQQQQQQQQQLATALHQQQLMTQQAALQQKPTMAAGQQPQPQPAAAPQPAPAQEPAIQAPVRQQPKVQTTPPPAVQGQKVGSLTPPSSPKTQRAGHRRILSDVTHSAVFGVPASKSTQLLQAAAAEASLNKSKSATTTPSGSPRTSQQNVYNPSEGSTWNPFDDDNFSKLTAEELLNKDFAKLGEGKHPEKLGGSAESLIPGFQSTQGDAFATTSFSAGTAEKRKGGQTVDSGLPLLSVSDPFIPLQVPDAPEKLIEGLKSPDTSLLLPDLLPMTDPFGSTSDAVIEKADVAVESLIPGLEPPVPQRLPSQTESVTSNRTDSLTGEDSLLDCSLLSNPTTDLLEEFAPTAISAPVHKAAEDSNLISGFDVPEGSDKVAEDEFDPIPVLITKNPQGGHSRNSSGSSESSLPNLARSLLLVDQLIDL
Chain of Glycogen synthase kinase-3 alpha (P49840 2-483 limits assumed): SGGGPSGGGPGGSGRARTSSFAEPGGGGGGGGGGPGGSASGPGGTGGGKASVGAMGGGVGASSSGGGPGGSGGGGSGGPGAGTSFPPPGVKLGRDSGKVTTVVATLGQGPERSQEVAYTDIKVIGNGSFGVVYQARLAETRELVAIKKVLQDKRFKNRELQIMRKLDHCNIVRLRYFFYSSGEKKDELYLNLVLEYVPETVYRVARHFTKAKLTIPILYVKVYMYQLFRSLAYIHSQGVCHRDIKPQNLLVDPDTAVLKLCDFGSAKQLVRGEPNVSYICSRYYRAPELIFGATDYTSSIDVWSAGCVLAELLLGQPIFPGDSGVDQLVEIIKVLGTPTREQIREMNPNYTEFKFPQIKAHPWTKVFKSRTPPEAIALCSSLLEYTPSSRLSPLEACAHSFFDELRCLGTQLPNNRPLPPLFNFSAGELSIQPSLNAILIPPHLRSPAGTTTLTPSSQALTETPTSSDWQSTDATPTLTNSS

In the case of C=CCOC(=O)c1cc(-c2ccc(/C=C3/NC(=S)NC3=O)o2)ccc1Cl, the Ratio IC50 (Homo sapiens) was 6.6, the Activity (HL-60 [1]) was “Dose-dependent effect” and the Activity (NB-4 [2]) was “Dose-dependent effect”. The inhibition (HL-60 [3]) was “Dose-dependent effect”, the inhibition (NB-4 [4]) was “Dose-dependent effect” and the Activity (HL-60 [5]) was “Non-Toxic”. The Activity (NB-4 [6]) was “Non-Toxic”, the Activity (HL-60 [7]) was “Dose-dependent effect” and the Activity (NB-4 [8]) was “Dose-dependent effect”. For the same compound, the Activity (NB-4 [9]) was “Dose-dependent effect”, the Activity (NB-4 [10]) was “Dose-dependent effect” and the Activity (HL-60 [11]) was “Active”. The Activity (NB-4 [12]) was “Active”, the Activity (HL-60 [13]) was “Active” and the Activity (NB-4 [14]) was “Active”. For the same compound, the Activity (HL-60 [15]) was “Active”, the Activity (NB-4 [16]) was “Active” and the inhibition [17] was “Dose-dependent effect”. For the same compound, the Activity [18] was “Not Active”, the Activity (HL-60 [19]) was “Non-Toxic” and the Activity [20] was “Not Active”. The Activity (NB-4 [21]) was “Non-Toxic”, the Activity [22] was 101% and the Activity [23] was 111%. It also gave an Activity [24] of 82%, an Activity [25] of 72% and an Activity [26] of 96%. The Activity [27] was 114%, the Activity [28] was 95% and the Activity [29] was 110%. The Activity [30] was 118%, the Activity [31] was 93% and the Activity [32] was 99%.
With N=C1NC(=O)/C(=C\c2ccc(-c3cccc([N+](=O)[O-])c3)o2)S1 the Activity [33] was 93%.

Source: ChEMBL document CHEMBL4334438, “Discovery of novel glycogen synthase kinase-3α inhibitors: Structure-based virtual screening, preliminary SAR and biological evaluation for treatment of acute myeloid leukemia” (Eur J Med Chem, 2019)
